From ChEMBL document CHEMBL1134712, “2-Aryl indole NK1 receptor antagonists: optimisation of indole substitution” (Bioorg Med Chem Lett, 2001)

Tests used:
[1] = target: Substance-P receptor (Homo sapiens, UniProt P25103); assay: Concentration required for displacement of [125I]-labeled substance P from cloned hNK1 receptor expressed in CHO cells; assay type: cell-based
[2] = tested on: Gerbillinae; assay: Percent inhibition of gerbil foot-tapping at 1 mg/kg, iv immediately following pre-treatment […]; assay type: functional
[3] = species: Rattus norvegicus; assay: Hepatic portal AUC was determined by pharmacokinetic study conducted in portal vein cannulated rats; assay type: ADME, organism-based; details: in vivo
[4] = species: Rattus norvegicus; assay: Systemic AUC was determined by pharmacokinetic study conducted in portal vein cannulated rats; assay type: ADME, organism-based; details: in vivo
[5] = tested on: Gerbillinae; assay: Percent inhibition of foot-tapping at 1 mg/kg, iv after pre-treatment time of 2 hr […]; assay type: functional
[6] = tested on: Gerbillinae; assay: Percent inhibition of gerbil foot-tapping at 1 mg/kg, iv after pre-treatment time of 2 hr; assay type: functional
[7] = tested on: Gerbillinae; assay: In vivo inhibitory dose determined in the gerbil foot-tapping assay after intravenous administration; assay type: functional; details: read-out: ID50 (the source's name)
[8] = Percent oral bioavailability determined in rats; assay type: ADME, organism-based; details: rat, in vivo, read-out: Bioavailabiility
[9] = Plasma clearance rate determined in rats; assay type: ADME, organism-based; details: rat, read-out: Clearance rate

Substance-P receptor, sequence (P25103 whole entry): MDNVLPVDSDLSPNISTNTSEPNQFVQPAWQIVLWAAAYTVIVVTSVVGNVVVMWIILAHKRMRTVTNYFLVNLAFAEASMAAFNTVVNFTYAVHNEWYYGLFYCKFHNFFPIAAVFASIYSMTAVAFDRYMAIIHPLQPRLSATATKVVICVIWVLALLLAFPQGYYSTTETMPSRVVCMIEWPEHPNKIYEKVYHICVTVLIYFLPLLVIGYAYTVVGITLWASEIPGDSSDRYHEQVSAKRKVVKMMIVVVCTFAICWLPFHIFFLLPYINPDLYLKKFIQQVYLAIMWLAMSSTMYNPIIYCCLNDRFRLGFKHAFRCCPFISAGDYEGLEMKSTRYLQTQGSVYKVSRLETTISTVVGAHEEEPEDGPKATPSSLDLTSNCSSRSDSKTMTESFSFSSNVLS

| SMILES | IC50 [1] [nM] | further results |
| --- | --- | --- |
| COc1ccccc1N1CCN(C(=O)CCc2c(-c3ccccc3)[nH]c3ccc(Cl)cc23)CC1 | 5.6 |  |
| COc1ccccc1N1CCN(C(=O)CCc2c(-c3ccc(Cl)cc3)[nH]c3cc(Cl)ccc23)CC1 | 4.9 |  |
| COc1ccccc1N1CCN(C(=O)CCc2c(-c3ccc(Cl)cc3)[nH]c3c(Cl)cc(Cl)cc23)CC1 | 14 |  |
| Cn1c(-c2ccc(Cl)cc2)c(CCC(=O)N2CCC(O)(Cc3ccccc3)CC2)c2cc(-c3cccnc3)ccc21 | 5.5 |  |
| Cn1c(-c2ccc(Cl)cc2)c(CCC(=O)N2CCC(O)(Cc3ccccc3)CC2)c2cc(-c3ccccn3)ccc21 | 1.7 |  |
| Cn1c(-c2ccc(Cl)cc2)c(CCC(=O)N2CCC(O)(Cc3ccccc3)CC2)c2cc(-c3ccco3)ccc21 | 0.79 |  |
| Cn1c(-c2ccc(Cl)cc2)c(CCC(=O)N2CCC(O)(Cc3ccccc3)CC2)c2cc(Cl)cnc21 | 0.15 | inhibition in vivo at 1 mg/kg [2]: 100%; AUC [3]: 96.8 ng·h/mL; AUC [4]: 8 ng·h/mL; inhibition in vivo at 1 mg/kg [5]: 10% |
| Cn1c(-c2ccc(Cl)cc2)c(CCC(=O)N2CCC(O)(Cc3ccccc3)CC2)c2cc(-n3cccc3)ccc21 | 2.3 |  |
| Cn1c(-c2ccc(Cl)cc2)c(CCC(=O)N2CCC(O)(Cc3ccccc3)CC2)c2cc(Cl)ncc21 | 0.22 |  |
| COc1ccccc1N1CCN(C(=O)CCc2c(-c3ccc(Cl)cc3)[nH]c3cccc(Cl)c23)CC1 | 950 |  |
| Cn1c(-c2ccc(Cl)cc2)c(CCC(=O)N2CCC(O)(Cc3ccccc3)CC2)c2cc(N3CCCCC3)ccc21 | 3.3 |  |
| COc1ccccc1N1CCN(C(=O)CCc2c(-c3ccccc3)[nH]c3ccc(F)cc23)CC1 | 87 |  |
| Cn1c(-c2ccc(Cl)cc2)c(CCC(=O)N2CCC(O)(Cc3ccccc3)CC2)c2cc(N3CCOCC3)ccc21 | 6.3 |  |
| COc1ccccc1N1CCN(C(=O)CCc2c(-c3ccc(Cl)cc3)[nH]c3ccc(OC(F)(F)F)cc23)CC1 | 8.9 |  |
| Cn1c(-c2ccc(Cl)cc2)c(CCC(=O)N2CCC(O)(Cc3ccccc3)CC2)c2cc(Br)ccc21 | 0.22 |  |
| CC(=O)c1ccc2c(c1)c(CCC(=O)N1CCC(O)(Cc3ccccc3)CC1)c(-c1ccc(Cl)cc1)n2C | 0.19 | inhibition in vivo at 1 mg/kg [6]: 14% |
| COc1ccccc1N1CCN(C(=O)CCc2c(-c3ccc(Cl)cc3)[nH]c3ccc(Cl)cc23)CC1 | 0.89 |  |
| COc1ccccc1N1CCN(C(=O)CCc2c(-c3ccc(Cl)cc3)[nH]c3ccccc23)CC1 | 31 |  |
| Cn1c(-c2ccc(Cl)cc2)c(CCC(=O)N2CCC(O)(Cc3ccccc3)CC2)c2cc(Cl)ccc21 | 0.16 | ED50 [7]: 0.3 mg/kg; AUC [3]: 24.7 ng·h/mL; AUC [4]: < 4 ng·h/mL; bioavailability [8]: 2.3%; clearance [9]: 31 mL/min/kg |
| Cn1c(-c2ccc(Cl)cc2)c(CCC(=O)N2CCC(O)(Cc3ccccc3)CC2)c2cnccc21 | 41 |  |
| O=C(CCc1c(-c2ccc(Cl)cc2)nc2ccc(Cl)cn12)N1CCC(O)(Cc2ccccc2)CC1 | 0.78 |  |
| C=Cc1ccc2c(c1)c(CCC(=O)N1CCC(O)(Cc3ccccc3)CC1)c(-c1ccc(Cl)cc1)n2C | 0.27 |  |
| Cn1c(-c2ccc(Cl)cc2)c(CCC(=O)N2CCC(O)(Cc3ccccc3)CC2)c2nc(Cl)ccc21 | 2.6 |  |
| COc1ccccc1N1CCN(C(=O)CCc2c(-c3ccc(Cl)cc3)[nH]c3cc(Cl)cc(Cl)c23)CC1 | 570 |  |
| COc1ccccc1N1CCN(C(=O)CCc2c(-c3ccc(Br)cc3)[nH]c3ccc(C)cc23)CC1 | 1 |  |
| Cn1c(-c2ccc(Cl)cc2)c(CCC(=O)N2CCC(O)(Cc3ccccc3)CC2)c2cc(-c3ccncc3)ccc21 | 5.5 |  |
| COc1ccccc1N1CCN(C(=O)CCc2c(-c3ccc(Cl)cc3)[nH]c3ccc(C)cc23)CC1 | 0.6 |  |
